Patent publication US11718604B2, “4-amino-6-(1,3-benzodioxole)picolinates and their use as herbicides” (Dow AgroSciences LLC, priority 2018, dated 2023)

How the values were obtained:
Type in all cases: in vivo
[1] = tested on: ABUTH: velvetleaf (Abutilon theophrasti); assay: Post-emergent herbicidal test, velvetleaf; details: post-emergence, 336 h, 14 days after application, read-out: Visual Growth Reduction (%) 14 Days After Application ABUTH; for pest or weed control at 17.5 g/ha: 17.5 g ai/ha; for pest or weed control at 35 g/ha: 35 g ai/ha; for pest or weed control at 70 g/ha: 70 g ai/ha; for pest or weed control at 140 g/ha: 140 g ai/ha
Outline: (§1)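 Greenhouse-grown plants at the first or second true leaf stage (7-21 d, ~15 h photoperiod, 23-29° C day) were sprayed overhead at 187 L/ha with compound in acetone/DMSO-based spray solution containing crop oil concentrate and surfactant. Injury was scored visually after 14 d, 0-100% versus untreated plants.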

[2] = tested on: BRSNN: oilseed rape, canola (Brassica napus); assay: Post-emergent herbicidal test, oilseed rape; details: post-emergence, 336 h, 14 days after application, read-out: Visual Growth Reduction (%) 14 Days After Application BRSNN; for pest or weed control at 17.5 g/ha: 17.5 g ai/ha; for pest or weed control at 35 g/ha: 35 g ai/ha; for pest or weed control at 70 g/ha: 70 g ai/ha; for pest or weed control at 140 g/ha: 140 g ai/ha
Outline: as §1

[3] = tested on: CIRAR: Canada thistle (Cirsium arvense); assay: Post-emergent herbicidal test, Canada thistle; details: post-emergence, 336 h, 14 days after application, read-out: Visual Growth Reduction (%) 14 Days After Application CIRAR; for pest or weed control at 17.5 g/ha: 17.5 g ai/ha; for pest or weed control at 35 g/ha: 35 g ai/ha; for pest or weed control at 70 g/ha: 70 g ai/ha; for pest or weed control at 140 g/ha: 140 g ai/ha
Outline: as §1

[4] = tested on: EPHHL: wild poinsettia (Euphorbia heterophylla); assay: Post-emergent herbicidal test, wild poinsettia; details: post-emergence, 336 h, 14 days after application, read-out: Visual Growth Reduction (%) 14 Days After Application EPHHL; for pest or weed control at 17.5 g/ha: 17.5 g ai/ha; for pest or weed control at 35 g/ha: 35 g ai/ha; for pest or weed control at 70 g/ha: 70 g ai/ha; for pest or weed control at 140 g/ha: 140 g ai/ha
Outline: as §1

[5] = tested on: IPOHE: ivyleaf morningglory (Ipomoea hederacea); assay: Post-emergent herbicidal test, ivyleaf morningglory; details: post-emergence, 336 h, 14 days after application, read-out: Visual Growth Reduction (%) 14 Days After Application IPOHE; for pest or weed control at 17.5 g/ha: 17.5 g ai/ha; for pest or weed control at 35 g/ha: 35 g ai/ha; for pest or weed control at 70 g/ha: 70 g ai/ha; for pest or weed control at 140 g/ha: 140 g ai/ha
Outline: as §1

[6] = tested on: VIOTR: wild violet (Viola tricolor); assay: Post-emergent herbicidal test, wild violet; details: post-emergence, 336 h, 14 days after application, read-out: Visual Growth Reduction (%) 14 Days After Application VIOTR; for pest or weed control at 17.5 g/ha: 17.5 g ai/ha; for pest or weed control at 35 g/ha: 35 g ai/ha; for pest or weed control at 70 g/ha: 70 g ai/ha; for pest or weed control at 140 g/ha: 140 g ai/ha
Outline: as §1

[7] = tested on: CYPES: yellow nutsedge (Cyperus esculentus); assay: Post-emergent herbicidal test, yellow nutsedge; details: post-emergence, 336 h, 14 days after application, read-out: Visual Growth Reduction (%) 14 Days After Application CYPES; for pest or weed control at 17.5 g/ha: 17.5 g ai/ha; for pest or weed control at 35 g/ha: 35 g ai/ha; for pest or weed control at 70 g/ha: 70 g ai/ha; for pest or weed control at 140 g/ha: 140 g ai/ha
Outline: as §1

[8] = tested on: DIGSA: large crabgrass (Digitaria sanguinalis); assay: Post-emergent herbicidal test, large crabgrass; details: post-emergence, 336 h, 14 days after application, read-out: Visual Growth Reduction (%) 14 Days After Application DIGSA; for pest or weed control at 17.5 g/ha: 17.5 g ai/ha; for pest or weed control at 35 g/ha: 35 g ai/ha; for pest or weed control at 70 g/ha: 70 g ai/ha; for pest or weed control at 140 g/ha: 140 g ai/ha
Outline: as §1

[9] = tested on: ECHCG: barnyardgrass (Echinochloa crus-galli); assay: Post-emergent herbicidal test, barnyardgrass; details: post-emergence, 336 h, 14 days after application, read-out: Visual Growth Reduction (%) 14 Days After Application ECHCG; for pest or weed control at 17.5 g/ha: 17.5 g ai/ha; for pest or weed control at 35 g/ha: 35 g ai/ha; for pest or weed control at 70 g/ha: 70 g ai/ha; for pest or weed control at 140 g/ha: 140 g ai/ha
Outline: as §1

[10] = tested on: SETFA: giant foxtail (Setaria faberi); assay: Post-emergent herbicidal test, giant foxtail; details: post-emergence, 336 h, 14 days after application, read-out: Visual Growth Reduction (%) 14 Days After Application SETFA; for pest or weed control at 17.5 g/ha: 17.5 g ai/ha; for pest or weed control at 35 g/ha: 35 g ai/ha; for pest or weed control at 70 g/ha: 70 g ai/ha; for pest or weed control at 140 g/ha: 140 g ai/ha
Outline: as §1

[11] = tested on: SORVU: shattercane (Sorghum bicolor); assay: Post-emergent herbicidal test, shattercane; details: post-emergence, 336 h, 14 days after application, read-out: Visual Growth Reduction (%) 14 Days After Application SORVU; for pest or weed control at 17.5 g/ha: 17.5 g ai/ha; for pest or weed control at 35 g/ha: 35 g ai/ha; for pest or weed control at 70 g/ha: 70 g ai/ha; for pest or weed control at 140 g/ha: 140 g ai/ha
Outline: as §1

COC(=O)c1nc(-c2cccc3c2OCO3)c(F)c(N)c1Cl [Compound 2]
pest or weed control at 17.5 g/ha [1]: 50%
pest or weed control at 35 g/ha [1]: 60%
pest or weed control at 70 g/ha [1]: 75%
pest or weed control at 140 g/ha [1]: 95%
pest or weed control at 17.5 g/ha [2]: 30%
pest or weed control at 35 g/ha [2]: 40%
pest or weed control at 70 g/ha [2]: 85%
pest or weed control at 140 g/ha [2]: 90%
pest or weed control at 17.5 g/ha [3]: 60%
pest or weed control at 35 g/ha [3]: 100%
pest or weed control at 70 g/ha [3]: 98%
pest or weed control at 140 g/ha [3]: 98%
pest or weed control at 17.5 g/ha [4]: 0%
pest or weed control at 35 g/ha [4]: 0%
pest or weed control at 70 g/ha [4]: 0%
pest or weed control at 140 g/ha [4]: 0%
pest or weed control at 17.5 g/ha [5]: 0%
pest or weed control at 35 g/ha [5]: 0%
pest or weed control at 70 g/ha [5]: 10%
pest or weed control at 140 g/ha [5]: 25%
pest or weed control at 17.5 g/ha [6]: 0%
pest or weed control at 35 g/ha [6]: 0%
pest or weed control at 70 g/ha [6]: 0%
pest or weed control at 140 g/ha [6]: 10%
pest or weed control at 17.5 g/ha [7]: 0%
pest or weed control at 35 g/ha [7]: 0%
pest or weed control at 70 g/ha [7]: 10%
pest or weed control at 140 g/ha [7]: 30%
pest or weed control at 17.5 g/ha [8]: 0%
pest or weed control at 35 g/ha [8]: 0%
pest or weed control at 70 g/ha [8]: 0%
pest or weed control at 140 g/ha [8]: 0%
pest or weed control at 17.5 g/ha [9]: 0%
pest or weed control at 35 g/ha [9]: 0%
pest or weed control at 70 g/ha [9]: 0%
pest or weed control at 140 g/ha [9]: 0%
pest or weed control at 17.5 g/ha [10]: 0%
pest or weed control at 35 g/ha [10]: 0%
pest or weed control at 70 g/ha [10]: 0%
pest or weed control at 140 g/ha [10]: 0%
pest or weed control at 17.5 g/ha [11]: 0%
pest or weed control at 35 g/ha [11]: 0%
pest or weed control at 70 g/ha [11]: 0%
pest or weed control at 140 g/ha [11]: 0%

COC(=O)c1nc(-c2ccc(Cl)c3c2OCO3)c(F)c(N)c1Cl [Compound 1A, methyl 4-amino-3-chloro-6-(7-chlorobenzo[d][1,3]dioxol-4-yl)-5-fluoropicolinate]
pest or weed control at 17.5 g/ha [1]: 85%
pest or weed control at 35 g/ha [1]: 90%
pest or weed control at 70 g/ha [1]: 93%
pest or weed control at 140 g/ha [1]: 95%
pest or weed control at 17.5 g/ha [2]: 78%
pest or weed control at 35 g/ha [2]: 88%
pest or weed control at 70 g/ha [2]: 95%
pest or weed control at 140 g/ha [2]: 98%
pest or weed control at 17.5 g/ha [3]: 83%
pest or weed control at 35 g/ha [3]: 83%
pest or weed control at 70 g/ha [3]: 88%
pest or weed control at 140 g/ha [3]: 93%
pest or weed control at 17.5 g/ha [4]: 3%
pest or weed control at 35 g/ha [4]: 10%
pest or weed control at 70 g/ha [4]: 13%
pest or weed control at 140 g/ha [4]: 18%
pest or weed control at 17.5 g/ha [5]: 0%
pest or weed control at 35 g/ha [5]: 0%
pest or weed control at 70 g/ha [5]: 0%
pest or weed control at 140 g/ha [5]: 0%
pest or weed control at 17.5 g/ha [6]: 53%
pest or weed control at 35 g/ha [6]: 95%
pest or weed control at 70 g/ha [6]: 75%
pest or weed control at 140 g/ha [6]: 90%
pest or weed control at 17.5 g/ha [7]: 78%
pest or weed control at 35 g/ha [7]: 83%
pest or weed control at 70 g/ha [7]: 83%
pest or weed control at 140 g/ha [7]: 80%
pest or weed control at 17.5 g/ha [8]: 5%
pest or weed control at 35 g/ha [8]: 20%
pest or weed control at 70 g/ha [8]: 50%
pest or weed control at 140 g/ha [8]: 28%
pest or weed control at 17.5 g/ha [9]: 8%
pest or weed control at 35 g/ha [9]: 18%
pest or weed control at 70 g/ha [9]: 28%
pest or weed control at 140 g/ha [9]: 30%
pest or weed control at 17.5 g/ha [10]: 15%
pest or weed control at 35 g/ha [10]: 15%
pest or weed control at 70 g/ha [10]: 25%
pest or weed control at 140 g/ha [10]: 30%
pest or weed control at 17.5 g/ha [11]: 25%
pest or weed control at 35 g/ha [11]: 43%
pest or weed control at 70 g/ha [11]: 55%
pest or weed control at 140 g/ha [11]: 65%
